From patent publication US7553826B2, “Cytarabine monophosphate prodrugs” (Metabasis Therapeutics, Inc., priority 2002, dated 2009) come the findings set out here.

Values after ≈ are worked out from the molar mass of the structure shown.

Broadly, the Vmax is the top rate of the reaction or transport when substrate is in excess. Usually Km stands for the substrate concentration at which the rate is half of its maximum. Usually solubility stands for the dissolved amount per volume that the medium holds. High values mean a readily soluble substance, low ones a poorly soluble substance.

Data set [1] is described as follows: Aqueous stability. It is filed as physicochemical. The settings on record: 100 mM citrate, pH5.0, 37° C, 50 μM. The protocol: Diluted solutions (50 μM) were incubated at 37° C. in a Fisher Scientific dry bath incubator (catalog # 11-718-2) with samples collected every 24 hours and stored at −80° C. Plasma samples (100 μL) were quenched with 1 mL of acetonitrile. […] Samples were resuspended in 120 μL of mobile phase buffer before HPLC injection.
Samples were analyzed on an HP1090 or HP1100 (Hewlett Packard) HPLC using a C-18 Alltech Econosphere column, 150 mm×4.6 mm (catalog # 70065), with a C-18 Alltech Econosphere guard column, 7.5 mm×4.6 mm (catalog # 96121). Samples were eluted with a methanol gradient: 0% for 5 minutes, then increasing to 10% at 10 minutes, 30% at 20 minutes, and 60% at 25 minutes. The column was allowed to equilibrate in 0% methanol for 10 minutes before the next injection. The flow rate was 1 mL/minute with a column temperature of 40° C. Prodrugs eluted around 19.5 minutes and were monitored by UV absorbance at 280 nm. For prodrugs in aqueous conditions, the same method was employed except the methanol gradient was as follows: 0% for 5 minutes, increasing to 10% at 10 minutes, and 30% at 20 minutes with prodrug eluting around 20 minutes.

The test system of data set [2] is human liver microsomes. The data set can be described thus: Enzyme kinetics of prodrug activation to araCMP in human liver microsomes. (Liver microsomes are vesicles of endoplasmic reticulum, rich in cytochrome P450 enzymes.)
Data set [3] can be described thus: Single IP injection liver targeting in rat. It is filed as in vivo. The settings on record: 100 mg CE/kg single IP injection.
Data set [4] is described as follows: Rat acute toxicity, 24 hr continuous i.v. infusion. It is filed as in vivo. As to conditions: rats, 2000 mg/kg/24 hrs continuous i.v. infusion. Here is the method: Male and female Simonsen rats were instrumented for continuous infusion as described in Example C. On the day of treatment, the rats were hooked up to the constant infusion tether and given free access to food and water. Three male and three female rats were treated Compound A at a dose of 2000 mg/kg/24 hrs using a flow rate of 2.08 ml/kg/hr. Compound A was dissolved at 42.5 mg/ml in water and the pH adjusted to 4 with 1M HCl. The osmolarity was adjusted to ˜300 mOsm using 5M NaCl. As a control, 2 male rats were infused with pH 4 saline for the same period of time. The appearance and disposition of the rats was monitored regularly and notes about their behavior recorded every 1-3 hrs during the working day.
The animals were anesthetized in a chamber supplied via a Fluotec 3 vaporizer with 5% isoflurane (Abbot Laboratories, NDC 0074-3292-02) in 100% oxygen at a flow rate of 1.5 to 2 liters per minute. […] The blood from each animal was divided between K2-EDTA-containing microtainer tubes (Becton Dickinson, 36/5974) and microtainer tubes with gel separators for serum (Becton Dickinson, 36/5956) and lithium heparin for plasma collection (Becton Dickinson, 36/5958). If possible, urine was removed from the bladder using a 23-gauge needle attached to a 3 cc syringe. Tissue samples were collected in the following order: liver, kidneys, small intestine, bladder and bone marrow. The small intestine was divided into three equal portions to represent samples from the duodenum, jejunum and ileum; fecal matter was manually removed by gentle sliding pressure using a blunt forceps. From each tissue, a portion was placed in 10% buffered formalin for histology.
For cell counting, […] of EDTA-treated blood or PBS-suspended bone marrow flush was mixed with 450 μL or 950 μL, respectively, nuclear staining solution containing 0.19 mg/mL crystal violet (Sigma # C-1658, lot 112H3660) in 1 M acetic acid, and incubated at room temperature for at least 5 min. After brief vortexing, a 10 μl aliquot of the mixture was placed in a hemocytometer and cells were counted using a Nikon Optiphot-2 microscope. The blood samples were counted under a 40× objective to evaluate the number of mononuclear cells (lymphocytes and monocytes) and polymorphonuclear cells (PMN, including granulocytes of the neutrophil, eosinophil and basophil type). Nucleated bone marrow cells were counted under a 10× objective.
EDTA-treated blood samples were submitted to LabCorp (San Diego, Calif.) for hematology analysis including erythrocyte and platelet numbers, hemoglobin, and hematocrit. Serum chemistry analysis was also performed by LabCorp. […]

Data set [5] is described as follows: Solubility. The class given is physicochemical. The protocol: With each of the three buffer systems, saturating solutions of Compound A and Compound B were prepared as follows. […] The resultant vials were sealed and equilibrated by tumbling at 25° C. for a minimum of 24 h. At the end of the incubation period, prodrug that was not in solution was removed from the samples by filtration through a 0.45 μm pore size nylon syringe filter. These diluted samples were assayed by the HPLC method of example E.

In the case of `Nc1ccn([C@@H]2O[C@H](CO[P@@]3(=O)OCC[C@@H](c4ccncc4)O3)[C@@H](O)[C@@H]2O)c(=O)n1` [Compound A, 2(1H)-Pyrimidinone, 4-amino-1-[5-O-[(2R,4S)-2-oxido-4-(4-pyridinyl)-1,3,2-dioxaphosphorinan-2-yl]-β-D-arabinofuranosyl]], the “t90 in aqueous solution” value in data set [1] came to 2 days. Also, in data set [2] (activation to araCMP, 2 mg/mL human liver microsomes lot RQX, 1 mM NADPH, pH 7.4, 37° C, 5 min), the Vmax came out at 0.11 ± 0.02 nmol/min/mg. The Km in data set [2] (activation to araCMP, human liver microsomes lot RQX) was 1080 ± 270 µM. Also, the “intrinsic clearance / activation rate relative to Compound B” value in data set [2] (human liver microsomes lot RQX) was 2.6 fold. In addition, in data set [3], the “LTI (Liver/plasma)” value worked out at 19.2 nmol/g/μM and the “Liver araCTP Peak @ 1 hr” value is recorded as 267 nmol/g. Also, in data set [4], the “serum chemistry and hematology parameters” value is listed as “generally within normal ranges”; the serum triglycerides levels result is “outside the normal range”. For the same compound, in data set [4] (24 hr treatment), the overt toxicity entry is “no overt toxicity was noted”. The tolerability result in data set [4] (24 hrs) was “well tolerated”. Also, in data set [5] (0.5 M Pi pH 8.0 buffer, 25° C), the solubility was determined as 2900 µg/mL (≈ 6.59 mM). The compound also registered a solubility in data set [5] (0.5 M citrate pH 4.0, 25° C) of 45800 µg/mL (≈ 104 mM). In data set [5] (0.5 M citrate pH 7.0, 25° C), this compound yielded a solubility of 2600 µg/mL (≈ 5.9 mM).
